Our source for the IC50 and EC50 values is ChEMBL document CHEMBL5104146, “Anti-inflammatory and anticancer p-terphenyl derivatives from fungi of the genus Thelephora” (Bioorg Med Chem, 2022).

One assay has as its system L929. The experiment in a line: Cytotoxicity against mouse L929 cells assessed as cell growth inhibition. It counts as functional, cell-based.
The test system of the next assay is KB 3-1. As to the kind of experiment: Cytotoxicity against human KB 3-1 cells assessed as cell growth inhibition. It counts as functional, cell-based.
A short description of assay [1]: Inhibition of Streptococcus pneumoniae FabK using t-o-NAC as substrate in presence of NADPH by […]. For orientation: In an ELISA, binding on a coated surface is turned into a signal by an enzyme label.
The nature of assay [2]: Inhibition of 17beta-HSD1 (unknown origin). Further details: species or system Homo sapiens.
A short description of assay [3]: Inhibition of Escherichia coli FabK using t-o-NAC as substrate in presence of NADPH by […].
Assay [4] is described as follows: Inhibition of Staphylococcus aureus FabK using t-o-NAC as substrate in presence of NADPH by […].
Assay [5] can be described thus: Inhibition of Saccharomyces cerevisiae alpha-glucosidase using pNPG as substrate preincubated for 10 mins followed by substrate addition measured after 15 mins by absorbance based microplate reader analysis.
Assay [6] is described as follows: Inhibition of TNF-alpha production in rat RBL-2H3 cells. In kind it is functional, cell-based.
The subject of another assay is HepG2. As to the kind of experiment: Antiproliferative activity against human HepG2 cells assessed as cell growth inhibition measured after 48 hrs. In kind it is functional, cell-based. To be noted: HepG2, 48 h.
Assay [7] is described as follows: Antioxidant activity assessed as DPPH radical scavenging activity by absorbance based analysis. In kind it is functional. In general terms: DPPH is a stable violet radical that fades when it is reduced.
Assay [8] is described as follows: Antioxidant activity assessed as DPPH radical scavenging activity measured after 30 mins under dark condition by microplate reader analysis. In kind it is functional.

Where only a bound is given, the exact number is not on record here.

With `O=C1C(O)=C(c2ccc(O)c(O)c2)C(=O)C(O)=C1c1ccc(O)cc1`, the figures for the IC50 (in the assay on L929; in the assay on KB 3-1; in [1]) were 17 µM, 7 µM and 1.57 µM, respectively.
Turning to `O=C1C(O)=C(c2ccc(O)cc2)C(=O)C(O)=C1c1ccc(O)cc1`, in assay [2], the EC50 (usually the concentration needed to bring the measured effect to its halfway point) is over 100 µM. Also, the values for the IC50 in [3], in assay [4] and in assay [1] were over 200 µM, over 200 µM and 0.24 µM, respectively.
As for `O=C(Oc1c(O)c(-c2ccc(O)cc2)c(OC(=O)c2ccccc2)c(O)c1-c1ccc(O)cc1)c1ccccc1`, the IC50 – broadly, the point on the concentration scale where inhibition reaches its midpoint – in assay [5] is over 50 µM.
As to `O=C(Oc1c(O)c(-c2ccc(O)cc2)c(OC(=O)c2ccc(O)cc2)c(O)c1-c1ccc(O)cc1)c1ccc(O)cc1`, in assay [6], 3.5 nM corresponded to half-maximal inhibition (IC50).
As to `CC(=O)Oc1c(OC(=O)c2ccccc2)c(-c2ccc(O)cc2)c(O)c(O)c1-c1ccc(O)cc1`, in assay [5], the IC50 worked out at 0.99 µM.
The same measure, in the same setting: under `O=C(Oc1c(OC(=O)c2ccccc2)c(-c2ccc(O)cc2)c(OC(=O)c2ccccc2)c(O)c1-c1ccc(O)cc1)c1ccccc1` stands 4.53 µM.
Same read-out and setting: under `CC(=O)Oc1c(OC(=O)c2ccccc2)c(-c2ccc(O)cc2)c(OC(=O)c2ccccc2)c(OC(=O)c2ccccc2)c1-c1ccc(O)cc1` stands 2.98 µM.
With `O=C(Cc1ccccc1)Oc1c(OC(=O)c2ccccc2)c(-c2ccc(O)cc2)c(O)c(O)c1-c1ccc(O)cc1`, the IC50 with HepG2 came out at 7 µM.
As for `O=C(Cc1ccccc1)Oc1c(O)c(-c2ccc(O)cc2)c(OC(=O)c2ccc(O)cc2)c(O)c1-c1ccc(O)cc1`, in [7], the EC50 came to 0.028 µM.
For the molecule `COC1=C(c2ccc(O)cc2)C(=O)C(OC(=O)c2ccccc2)=C(c2ccc(O)cc2)C1=O`, the IC50 in assay [5] amounted to 18.8 µM. The EC50 in assay [8] stood at 150 µM.
Turning to `O=C1O[C@H]([C@@H](O)CO)C(O)=C1O` [ASCORBIC ACID], the EC50 in assay [7] amounted to 0.27 µM.
On to `O=C(Cc1ccccc1)Oc1c(OC(=O)Cc2ccccc2)c(-c2ccc(O)cc2)c(O)c(O)c1-c1ccc(O)cc1` [VIALININ A], for which the IC50 in the assay on HepG2 is 7 µM; in assay [6], 0.02 nM.
